Legend:
[1] = cited from earlier work
[2] = Hydrolytic and storage stability of nucleotide analog; format: physicochemical

Row | Compound | Log P [1] | resistance to hydrolysis / storage stability [2]
1 | Nc1ncnc2c1ncn2[C@@H]1O[C@H](COP(=O)(O)OP(=O)(O)OP(=O)(O)O)[C@@H](O)[C@H]1O [ATP, adenosine-5′-triphosphate] | −5.5 | 
2 | Nc1ncnc2c1ncn2[C@@H]1O[C@H](COP(=O)(O)CP(=O)(O)O)[C@@H](O)[C@H]1O [AMPcP, Adenosine 5′-(α, β-methylene)diphosphate] | −4.8 | resistant to hydrolysis and be stable for long-term storage and repeat use

From patent US12461078B2, “Compounds for use in system suitability testing of inert LC systems and columns” (priority 2020, dated 2025)
